Assays:
Saccharomyces cerevisiae [1] = test: In vitro inhibitory activity of Beta-1,3-glucan synthase of Saccharomyces cerevisiae at concentration of 100 ug/ml
Saccharomyces cerevisiae [2] = test: In vitro inhibitory activity of Beta-1,3-glucan synthase of Saccharomyces cerevisiae at concentration of 200 ug/ml
Saccharomyces cerevisiae [3] = test: In vitro inhibitory activity of Beta-1,3-glucan synthase of Saccharomyces cerevisiae at concentration of 50 ug/ml
Saccharomyces cerevisiae [4] = test: In vitro inhibitory activity of Beta-1,3-glucan synthase of Saccharomyces cerevisiae at concentration of 12.5 ug/ml
Phytophthora capsici = test: Minimum amount required to induce hyphal malformation in Phytophthora capsici; format: functional
Saccharomyces cerevisiae [5] = test: In vitro inhibitory activity of Beta-1,3-glucan synthase of Saccharomyces cerevisiae at concentration of 25 ug/ml
Saccharomyces cerevisiae [6] = test: In vitro inhibitory activity of Beta-1,3-glucan synthase of Saccharomyces cerevisiae at concentration of 400 ug/ml
Saccharomyces cerevisiae [7] = test: In vitro inhibitory activity of Beta-1,3-glucan synthase of Saccharomyces cerevisiae at concentration of 800 ug/ml

SMILES | inhibition (Saccharomyces cerevisiae [1]) | inhibition (Saccharomyces cerevisiae [2]) | inhibition (Saccharomyces cerevisiae [3]) | inhibition (Saccharomyces cerevisiae [4]) | Activity (Phytophthora capsici) | inhibition (Saccharomyces cerevisiae [5]) | inhibition (Saccharomyces cerevisiae [6]) | inhibition (Saccharomyces cerevisiae [7])
C[C@H]1C(=O)C(CO)=C[C@H](O)[C@H]1O | 66% | 75% | 47% | 12% | 100 ug disk-1 | 30% | 85% | 91%
C[C@H]1CCC/C=C/[C@@H]2C[C@H](O)C[C@H]2[C@H](O)/C=C/C(=O)O1 [BREFELDIN A] | 0% | 0% | 0% | 0% | 50 ug disk-1 | 0% | 6% | 0%
CC(C)=C[C@H]1C[C@H](C)[C@]2(CC[C@]3(C)C[C@H]4[C@H](C(=O)C[C@@]4(C)O)/C(C=O)=C\C[C@H]32)O1 [OPHIOBOLIN A] | 74% | 79% | 56% | 31% | 10 ug disk-1 | 56% | 84% | 89%

— ChEMBL document CHEMBL1151038, “-Glucan biosynthesis inhibitors isolated from fungi as hyphal malformation inducer” (1993)
